The test system of assay [1] is Human coronary artery smooth muscle cells. The experiment in a line: Inhibition of human smooth muscle cell proliferation (cell counts, growth rate vs wells without peptide). It counts as cell-based. To be noted: for Effect on proliferation of human smooth muscle cells (in words): compared with wells that did not contain peptide; for % Control Proliferation Day 1 vs Day 4 / % Control Proliferation Day 1 vs Day 7: percentage of the control growth rate, values below 100 = inhibition, peptides 0.1-10 μg/ml, concentration not given.

Assay [2] in a line: Unspecified earlier test of effectiveness of AII fragments. The conditions noted are these: test not described.
The test system of assay [3] is smooth muscle cell. To be noted: Strawn et al., Hypertension 33:207-211 (1999); cited from earlier work.
The subject of assay [4] is smooth muscle cell growth after vascular injury. The conditions noted are these: Strawn et al., Hypertension 33:207-211 (1999); cited from earlier work.
The subject of assay [5] is AT2 receptor. The conditions noted are these: cited from earlier work.

“Also recorded” adds a separate entry of the source. Square brackets hold non-standard residues; d marks the D form. Ends that are not written are not given here. Phe(4-NH2) = Nc1ccc(C[C@H](N)C(=O)O)cc1

DRP(OH)AIHP [Peptide 8GD]: in assay [1], the “Effect on proliferation of human smooth muscle cells (in words)” value (shortened to “Effect on proliferation”) is given as “inhibited smooth muscle cell proliferation”, the “% Control Proliferation Day 1 vs Day 4” value amounted to 72.6% and the “% Control Proliferation Day 1 vs Day 7” value stood at 66.4%.
On to “Arg—Val—Tyr—Ile—His—Pro (RVYIHP) [A(2-7)]”, for which, in assay [1], the “Effect on proliferation” value is given as “inhibited smooth muscle cell proliferation”, the “% Control Proliferation Day 1 vs Day 4” value amounted to 82.4% and the “% Control Proliferation Day 1 vs Day 7” value came out at 64.8%.
With DRKYIHP [Peptide 5GD], in assay [1], the “Effect on proliferation” value is “inhibited smooth muscle cell proliferation”, the “% Control Proliferation Day 1 vs Day 4” value came out at 86.6% and the “% Control Proliferation Day 1 vs Day 7” value was found to be 80.1%.
In the case of DRVYIH [A(1-6)], in assay [1], the “Effect on proliferation” value is “inhibited smooth muscle cell proliferation”, the “% Control Proliferation Day 1 vs Day 4” value is on record as 76.5% and the “% Control Proliferation Day 1 vs Day 7” value is reported as 61.1%.
Consider His—Pro—Phe (HPF) [AII(6-8)], for which the “Effectiveness (in words)” value in assay [2] is “not to be effective”.
For the substance “A(1-7): AII residues 1-7, SEQ ID NO:4 (DRVYIHP) [reference compound]”, in assay [1], the “% Control Proliferation Day 1 vs Day 4” value stood at 73.3% and the “% Control Proliferation Day 1 vs Day 7” value was 63.3%. The “Smooth muscle cell proliferation (in words)” value in assay [3] is “inhibit smooth muscle cell proliferation”. Further, in assay [4], the “Smooth muscle cell growth after vascular injury (in words)” value is on record as “reduce smooth muscle cell growth after vascular injury”.
As to Tyr—Ile—His—Pro—Phe (YIHPF) [AII(4-8)], the “Effectiveness (in words)” value in assay [2] is “not to be effective; also recorded: ineffective”.
As to “Asp—Arg—Val—Tyr—Ile—His—Pro—Phe (DRVYIHPF) [AII, reference compound]”, the “Affinity for AT2 relative to AT1” value in assay [5] (higher affinity for AT2 than AT1, Speth and Kim 1990) is on record as 100 times. Further, in assay [1], the “Effect on proliferation” value is given as “increased the proliferation”, the “% Control Proliferation Day 1 vs Day 4” value is 121.4% and the “% Control Proliferation Day 1 vs Day 7” value is 154.5%.
Consider “Val—Tyr—Ile—His—Pro—Phe (VYIHPF) [A(3-8)]”, for which, in assay [1], the “Effect on proliferation” value was “inhibited smooth muscle cell proliferation”, the “% Control Proliferation Day 1 vs Day 4” value came to 74.7% and the “% Control Proliferation Day 1 vs Day 7” value came to 61.7%.
As to DRVAIHP [Peptide 1GD], in assay [1], the “Effect on proliferation” value was “inhibited smooth muscle cell proliferation”, the “% Control Proliferation Day 1 vs Day 4” value is given as 55.4% and the “% Control Proliferation Day 1 vs Day 7” value is reported as 54.2%.
On the same counts, the results for Ile—His—Pro—Phe (IHPF) [A(5-8)] are “inhibited smooth muscle cell proliferation”, 63.1% and 55.0%.
Take Val—Tyr—Ile—His—Pro (VYIHP) [A(3-7)]: in assay [1], the “Effect on proliferation” value was “inhibited smooth muscle cell proliferation”, the “% Control Proliferation Day 1 vs Day 4” value turned out to be 80.5% and the “% Control Proliferation Day 1 vs Day 7” value was 70.0%.
As for Asp—Arg—Val—Tyr—Ile (DRVYI) [A(1-5)], in assay [1], the “% Control Proliferation Day 1 vs Day 4” value was 85.9% and the “% Control Proliferation Day 1 vs Day 7” value stood at 83.1%.
On to “Asp—Arg—Val—Tyr—Ile—Xaa—Pro—Phe (DRVYI[Phe(4-NH2)]PF) [p-aminophenylalanine6-AII]”, for which the “Binding characteristics (in words)” value in assay [5] (experimental models of Catalioto 1994, Bryson 1992) is “comparable to AT2 antagonists”.

These data come from patent US20020049162A1, “Methods for inhibiting smooth muscle cell proliferation” (priority 2000, published 2002).
